According to patent US12129237B2, “Substituted diaminocarboxamide and diaminocarbonitrile pyrimidines, compositions thereof, and methods of treatment therewith” (SIGNAL PHARMACEUTICALS, LLC, priority 2011, dated 2024):
pIC50: −log10 of the molar value.

The compounds below were run against T1, JNK1 (Homo sapiens, UniProt P45983) (assay: JNK1 biochemical assays (one or more of: time resolved fluorescence, Z'-LYTE Cascade, radioactive)). Details: one or more of the JNK1 biochemical assays; read-out: Act. Level (JNK1 IC50 activity level).
T1 construct: purchased Carna Biosciences
T1 sequence (P45983 whole entry): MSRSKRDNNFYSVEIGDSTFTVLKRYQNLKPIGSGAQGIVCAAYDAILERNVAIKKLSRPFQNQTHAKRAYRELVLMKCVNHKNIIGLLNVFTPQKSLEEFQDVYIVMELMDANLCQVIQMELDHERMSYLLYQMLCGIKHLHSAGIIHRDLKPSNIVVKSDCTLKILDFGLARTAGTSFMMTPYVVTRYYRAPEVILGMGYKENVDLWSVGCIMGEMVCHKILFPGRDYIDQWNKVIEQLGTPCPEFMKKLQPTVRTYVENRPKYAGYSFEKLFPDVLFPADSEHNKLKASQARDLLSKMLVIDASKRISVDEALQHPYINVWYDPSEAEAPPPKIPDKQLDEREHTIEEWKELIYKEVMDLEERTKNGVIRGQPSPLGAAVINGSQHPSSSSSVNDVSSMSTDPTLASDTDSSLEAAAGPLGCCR

pIC50 | Compound
> 6.70 | NC(=O)c1cnc(N[C@H]2CC[C@H](OC3CC3)CC2)nc1N[C@@H]1CCC[C@H](O)C1 [Example 205, 2-((1r,4R)-4-cyclopropoxycyclohexylamino)-4-((1R,3S)-3-hydroxycyclohexylamino)pyrimidine-5-carboxamide]
> 6.70 | CCO[C@H]1CC[C@H](Nc2ncc(C(N)=O)c(N[C@@H]3CCC[C@@H]3CO)n2)CC1 [Example 209, 2-((1r,4R)-4-ethoxycyclohexylamino)-4-((1R,2S)-2-(hydroxymethyl)cyclopentylamino)pyrimidine-5-carboxamide]
> 6.70 | CCO[C@H]1CC[C@H](Nc2ncc(C(N)=O)c(NC(C)(C)C)n2)CC1 [Example 211, 4-(tert-butylamino)-2-((1r,4r)-4-ethoxycyclohexylamino)pyrimidine-5-carboxamide]
> 6.70 | CO[C@H]1CC[C@H](Nc2ncc(C(N)=O)c(N[C@]3(C)CCC[C@H](O)C3)n2)CC1 [Example 215, 4-((1R,3S)-3-hydroxy-1-methylcyclohexylamino)-2-((1r,4R)-4-methoxycyclohexylamino)pyrimidine-5-carboxamide]
> 6.70 | NC(=O)c1cnc(N[C@H]2CC[C@H](O)CC2)nc1NC1CC(F)(F)C1 [Example 217, 4-(3,3-difluorocyclobutylamino)-2-((1r,4r)-4-hydroxycyclohexylamino)pyrimidine-5-carboxamide]
> 6.70 | NC(=O)c1cnc(N[C@H]2CC[C@H](O)CC2)nc1NCCC1CC1 [Example 218, 4-(2-cyclopropylethylamino)-2-((1r,4r)-4-hydroxycyclohexylamino)pyrimidine-5-carboxamide]
> 6.70 | NC(=O)c1cnc(N[C@H]2CC[C@H](O)CC2)nc1NCCC1CCC1 [Example 219, 4-(2-cyclobutylethylamino)-2-((1r,4r)-4-hydroxycyclohexylamino)pyrimidine-5-carboxamide]

Continued, compound first:

Compound | pIC50
CC(C)Nc1nc(NC23CCC(O)(CC2)CC3)ncc1C(N)=O [Example 202, 2-(4-hydroxybicyclo[2.2.2]octan-1-ylamino)-4-(isopropylamino)pyrimidine-5-carboxamide] | > 6.70
CC(=O)N[C@H]1CC[C@H](Nc2ncc(C(N)=O)c(NC(C)C)n2)CC1 [Example 203, 2-((1r,4r)-4-acetamidocyclohexylamino)-4-(isopropylamino)pyrimidine-5-carboxamide] | > 6.70
CNC(=O)c1cnc(N[C@H]2CC[C@H](OC)CC2)nc1N[C@@H]1CCC[C@H](O)C1 [Example 206, 4-((1R,3S)-3-hydroxycyclohexylamino)-2-((1r,4R)-4-methoxycyclohexylamino)-N-methylpyrimidine-5-carboxamide] | 6.10 to 6.70
C[C@@H]1CC[C@@H](Nc2nc(NC3CCOCC3)ncc2C(N)=O)C[C@H]1O [Example 208, 4-((1R,3R,4R)-3-hydroxy-4-methylcyclohexylamino)-2-(tetrahydro-2H-pyran-4-ylamino)pyrimidine-5-carboxamide] | > 6.70
CC(C)(C)Nc1nc(N[C@H]2CC[C@H](OCC(F)(F)F)CC2)ncc1C(N)=O [Example 212, 4-(tert-butylamino)-2-((1r,4r)-4-(2,2,2-trifluoroethoxy)cyclohexylamino)pyrimidine-5-carboxamide] | > 6.70
CC(C)(C)Nc1ncc(C(N)=O)c(N[C@@H]2CCC[C@](C)(O)C2)n1 [Example 213, 2-(tert-butylamino)-4-((1R,3S)-3-hydroxy-3-methylcyclohexylamino)pyrimidine-5-carboxamide] | > 6.70
CN[C@H]1CC[C@H](Nc2ncc(C(N)=O)c(NC(C)C)n2)CC1 [Example 214, 4-(isopropylamino)-2-((1r,4r)-4-(methylamino)cyclohexylamino)pyrimidine-5-carboxamide] | > 6.70
CO[C@H]1CC[C@](C)(Nc2ncc(C(N)=O)c(N[C@@H]3CCC[C@H](O)C3)n2)CC1 [Example 216, 4-((1R,3S)-3-hydroxycyclohexylamino)-2-((1r,4R)-4-methoxy-1-methylcyclohexylamino)pyrimidine-5-carboxamide] | > 6.70
